Experiments:
[1] = tested on: CD8-positive T cell clones (TK-f01 2H10); test: antigen presentation by MHC class I, cross-presentation (IFN-γ ELISA); format: cell-based, human
Experimental: Further, it was confirmed that NY-ESO-1 f peptide is presented as an antigen also by MHC class I, i.e., cross-presented (FIG. 29). Specifically, in a non-serum AIM-V culture medium containing 1 μM of NY-ESO-192-100 short-chain peptide, 1 μM of NY-ESO-191-110 f peptide or 10 μg/ml of recombinant protein, dendritic cells (5×10^5 cells/ml) were cultured and pulsed with antigen, in the presence/absence of 10 μM of cytochalasin B. The cells were washed and then CD8-positive T cell clones (TK-f01 2H10) (5×10^3 cells) were cultured at 37° C. for 24 hours with the dendritic cells (5×10^3 cells) pulsed with the antigens. The amount of production of IFN-γ by antigen stimulation was measured by ELISA.

[2] = tested on: NY-ESO-1-specific CD4-positive T cell clones (E-8A1); test: antigen presentation by MHC class II (IFN-γ ELISA); format: cell-based, human
Experimental: Specifically, NY-ESO-1-specific CD4-positive T cell clones (E-8A1) were subjected to IFN-γ ELISA by use of self-EBV-B cells as antigen-presenting cells, in the presence of peptide NY-ESO-1 f peptide at a temperature condition of 4° C. or 37° C.
“E/T ratio” of the horizontal axis of FIG. 28 indicates a ratio of co-culturing between Effector (T cell) and Target (EBV-B cell).

U937 = test: intake of FAM-conjugated NY-ESO-1 f peptide into antigen-presenting cell; format: cell-based, human; details: 3 hours after the start of culturing; U937 primed with 20 ng/ml PMA
Experimental: Initially, the inventors of the present invention analyzed the point (A). Specifically, U937, which is a human monocytic leukemia strain, was subjected to priming using 20 ng/ml of PMA, and then cultured with NY-ESO-1 f peptide conjugated with FAM™. Localization of NY-ESO-1 f peptide in U937 was confirmed by observing fluorescence of FAM™ which is a fluorescent pigment.
FIG. 27 is a view illustrating that NY-ESO-1 f peptide was taken into an antigen-presenting cell (U937).

[3] = tested on: XAGE-1b-specific CD4-positive T cells (4C187-1); test: natural epitope recognition by CD4 clone T-cells 4C187-1; format: cell-based, human; details: clone 4C187-1
[4] = tested on: XAGE-1b-specific IgG antibody; test: ELISA of XAGE-1b-specific IgG antibody in serums; format: binding, human
Experimental: Full-length XAGE-1b protein (carbonic acid buffer, pH 9.6) with a concentration of 1 μg/ml was immobilized overnight on a 96 well plate (NUNC) at 4° C., and then the plate was washed with a washing solution (PBS/0.1% TWEEN). To the washed plate, 5 FCS/PBS was added and the plate was subjected to blocking at 37° C. for 1 hour. After the blocking, serum diluted 100 times, 300 times, 900 times, or 2700 times was added and the resultant was caused to react at 37° C. for 2 hours. Subsequently, the resultant was washed with the washing solution, and then peroxidase-binding goat anti-human IgG antibody (diluted 5000 times) (Jackson ImmunoResearch Laboratories, Inc.) was added to the resultant and this mixture was caused to react at 37° C. for 1 hour. After the reaction, the resultant was washed with the washing solution and a substrate solution to which hydrogen peroxide was added (solution obtained by dissolving orthophenylendiamine in 0.05M citric acid buffer (pH 5.0)) was added to stain the resultant. After the staining, 6N sulfuric acid was added to stop the reaction, and absorbance (wavelength of 490 nm) thereof was measured using a microplate reader (Bio-Rad Laboratories, Inc.).
Whether or not humoral immune responses to XAGE-1b were present were examined for 200 cases of subjects suffering from non-small-cell lung cancer (including 69 cases of subjects suffering from lung adenocarcinoma in the late stage) who had consulted Kawasaki Medical School Hospital from 2005 to 2009, and for 50 cases of normal healthy subjects serving as controls.
Specifically, whether or not XAGE-1b-specific IgG antibody was present in serums sampled from lung cancer patients was examined by ELISA.
Among them, the lung cancer patients of the very-strong zone, the strong zone, and the weak zone were regarded as serum antibody titer-positive patients.

[5] = tested on: HLA-B*3501-restricted CD8-positive T cell clones (8C187-4); test: IFN-γ ELISA with CD8-positive T cell clones 8C187-4; format: cell-based, human; details: clone 8C187-4
Description: FIG. 19 is a view showing that peptide 21-36 is a peptide recognized by T cell clones (8C187-4).
As shown in (c) of FIG. 19, when CD8-positive T cell clones (8C187-4) obtained from KLU 187 were stimulated with EBV-B cells expressing HLA-B*3501 as antigen-presenting cells, production of XAGE-1b-specific IFN-γ were detected.

Question: What does the source list for “NY-ESO-1 f peptide: long-chain peptide made up of 20 amino acids of NY-ESO-1 (YLAMPFATPMEAELARRSLA)”?
Answer: effect of cytochalasin B on reaction ([1]; 10 μM of cytochalasin B): decrease in a reaction to CD8-positive T cells; antigen presentation by MHC class I ([1]; dendritic cells pulsed with 1 μM peptide): presented as an antigen by MHC class I; effect of low temperature on reaction ([2]; low temperature (4° C.) blocks intake): decrease in a reaction to CD4-positive T cells; antigen presentation by MHC class II ([2]; self-EBV-B cells as antigen-presenting cells, 4° C. or 37° C.): presented as an antigen by MHC class II; intake into antigen-presenting cells (U937): taken into the cells

B1: XAGE-1b protein: XAGE-1b protein (81 amino acids, SEQ ID. No. 1) synthesized by GL Biochem; cancer/testis antigen (protein, listed as Homo sapiens)
chain: MESPKKKNQQLKVGILHLGSRQKKIRIQLRSQCATWKVICKSCISQTPGINLDLGSGVKVKIIPKEEHCKMPEAGEEQPQV
Question: For B1, which “reaction on stimulation with self-dendritic cells pulsed with antigen” value [3] is on record?
Answer: production of antigen-specific IFN-γ

Question: What about the “antibody reaction to XAGE-1b” value ([4]; 50 cases of normal healthy subjects) of the same molecule?
Answer: no antibody reaction to XAGE-1b was observed

Question: What about the “XAGE-1b serum antibody titer-positive cases” value ([4]; Non-small-cell lung cancer (n = 200)) of the same molecule?
Answer: 20 (10.0%) n (%)

Question: And the “XAGE-1b serum antibody titer-positive cases” value ([4]; Stage 3B/4 lung adenocarcinoma (n = 69))?
Answer: 13 (18.8%) n (%)

Question: What about the “reaction on stimulation with self-dendritic cells pulsed with antigen” value [5] of the same molecule?
Answer: production of antigen-specific IFN-γ

Source: patent US20120064102A1, “PEPTIDE INDUCING XAGE-1B-SPECIFIC IMMUNE REACTION AND UTILIZATION OF SAME” (NATIONAL UNIVERSITY CORPORATION OKAYAMA UNIVERSITY, priority 2009, published 2012)
